Measured values reported in the RepoRT retention time repository.

Assay: Agilent ZORBAX 300 SB-C18, 150 × 1 mm, 3.5 µm; A: water + 0.01% heptafluorobutyric acid; B: acetonitrile + 0.01% heptafluorobutyric acid; gradient (min/%B) 0/0 100/90
Conditions: stereoisomer not certain

Row | Structure (SMILES) | LC retention time [min]
1 | Cc1[nH]c(=S)[nH]c1CC(C)C | 9.02
2 | Cc1cccc2cc[nH]c12 | 12.6
3 | Cc1cc(N)c2c(c1)CCC(=O)N2 | 8.69
4 | Nc1cccc(N)c1 | 5.85
5 | CC(C)CNCC(C)C | 8.04
6 | Cc1ccc(CNC2CCCC2)o1 | 8.53
7 | O=C1OCc2c1[nH]c(=O)[nH]c2=O | 1.27
8 | C#CC(C)(N)CC (configuration not stated) | 6.91
9 | CCCCNC | 7.29
10 | N=C(N)c1ccc(N)cc1 | 6.62
11 | NCCCn1ccnc1 | 6.66
12 | CC1=Nc2ccccc2Sc2ccccc21 | 14.5
13 | CCCCCCCCCCn1c(CCC)nc2ccccc21 | 15.6
14 | CC12CCC(=O)C=C1CCC1C2CCC2(C)C1CCC2(C)O (configuration not stated) | 14.5
15 | Cc1cccnn1 | 5.91
16 | CC1CCCN1 (configuration not stated) | 5.96
17 | CN1CC(=O)N(c2cccc(N)c2)C1=O | 6.98
18 | C=CCN(C)CC=C | 6.98
19 | O=C1C(=Cc2ccoc2)CCCC1=Cc1ccoc1 | 15.7
20 | C=CCC1(C(C)CCC)C(=O)NC(=O)NC1=O (configuration not stated) | 11.4
21 | CCc1ccc(C(c2c[nH]c3ccccc23)c2c[nH]c3ccccc23)cc1 | 18.2
22 | Nc1c2c(nc3ccccc13)N(C1CCCCC1)CC2 | 10.9
23 | Cn1c(=O)n(C)c(=O)n(CC(=O)N2CCCCC2)c1=O | 8.88
24 | CN(C)C(=O)C1OC(C)(C)OC1C(=O)N(C)C (configuration not stated) | 8.25
25 | CCCn1cnc2c1c(=O)n(CCCCC(C)=O)c(=O)n2C | 10.2
26 | OCC1CC(O)CN1 (configuration not stated) | 2.85
27 | Nc1ccc(N)nc1 | 5.45

Row | Structure (SMILES) | LC retention time [min]
28 | O=C(O)c1cc(N2CCCC2=O)cc(N2CCCC2=O)c1 | 8.34
29 | CCC(C)C1(CC)C(=O)NC(=O)NC1=O (configuration not stated) | 9.71
30 | CC1(C)CC(=NNC(=O)C(=O)NN=C2CC(C)(C)NC(C)(C)C2)CC(C)(C)N1 | 7.32
31 | Nc1cccc(N)n1 | 6.11
32 | CC1(C)CC(NCc2ccncc2)CC(C)(C)N1 | 7.45
33 | C=CCN1CCC23c4c5ccc(O)c4OC2C(O)C=CC3C1C5 (configuration not stated) | 8.18
34 | NC1C(O)OC(CO)C(O)C1O (configuration not stated) | 2.77
35 | CNCCCCCCN(C)CCCCCCNC | 7.6
36 | Cc1cccc(C(=O)N2CCc3c([nH]c4ccccc34)C2c2ccccc2)c1 (configuration not stated) | 17.8
37 | C(=Cc1cccs1)c1ccccn1 | 9.18
38 | CCCCN(CC)CC | 7.73
39 | Cc1cc(C)c(NC(=O)c2ccncc2)c(C)c1 | 10.4
40 | C#CC(C)(C)NC(=O)NC(C)(C)C#C | 9.95
41 | O=S(=O)(O)CCN1CCN(CCO)CC1 | 1.95
42 | CC(=O)NC1CCC2C3CC=C4CC(OC(C)=O)CCC4(C)C3CCC12C (configuration not stated) | 16.7
43 | NC1CC(CO)C(O)C1O (configuration not stated) | 2.49
44 | CN1C(=O)CC(N2CCN(C(=O)CN3CCCC3)CC2)C1=O (configuration not stated) | 7.12
45 | CN1C(=O)C(CCC(N)=O)NC1=S (configuration not stated) | 6.53
46 | Cc1[nH]c(C)c(C=O)c1C=O | 7.42
47 | Cc1ccc2cc(C)c(NCc3cccnc3)nc2c1 | 8.55
48 | CC(C)C1CN(Cc2ccco2)CCN1 (configuration not stated) | 7.94
49 | Cc1nc(N=C(N)N)nc2c(C)cccc12 | 9.23
50 | COc1ccc(N2C(=O)CC(C3CCCO3)C2=O)cc1 (configuration not stated) | 10.7
51 | CC1CC(C)(C)Nc2ccc(O)cc21 (configuration not stated) | 8.04
52 | CCCCC1(C)NC(=S)N(c2ccc(C)cc2)N1 (configuration not stated) | 15.1
53 | CN(C)c1c[nH]c(=O)[nH]c1=O | 6.22
54 | S=C(Nc1cccnc1)NC1CCCc2ccccc21 (configuration not stated) | 11

Row | Structure (SMILES) | LC retention time [min]
55 | c1ccc(-c2cc(N3CCCCC3)c3ccccc3n2)cc1 | 12
56 | CCOC(=O)CN | 6.34
57 | NC1CCCCCC1 | 7.85
58 | CSc1cccc2cccnc12 | 11
59 | COc1ccc(Cc2c(O)n(C)c(=O)n(C)c2=O)c(OC)c1OC | 11.2
60 | CCOC(=O)C1(c2ccccc2)CCN(C)CC1 | 9.81
61 | Cc1ccc(C=NNC(=O)c2ccc(N)cc2)cc1 | 10.3
62 | O=C1C(=Cc2cccs2)CCCC1=Cc1cccs1 | 18.5
63 | Cc1cc(C)c2[nH]c3c(c2c1)CCCC3=O | 14.8
64 | Nc1ccc2c(c1)oc1ccccc12 | 11.6
65 | O=C1NCCc2c1[nH]c1ccccc21 | 10.1
66 | O=C(O)c1c[nH]c(=O)[nH]1 | 1.64
67 | Cc1cccc(C)c1NC1=NCCCS1 | 9.58
68 | O=C1CCNc2cc3ccccc3cc21 | 12.1
69 | CCC(C)NC(C)CC (configuration not stated) | 8.16
70 | CCN(CCCCOC(=O)c1ccc(OC)c(OC)c1)C(C)Cc1ccc(OC)cc1 (configuration not stated) | 11.9
71 | CNCCN | 6.51
72 | COc1ccc(CN2CCC(N)CC2)cc1OC | 7.7
73 | c1cncc(-c2nnco2)c1 | 6.78
74 | Cc1ccc(C(=O)C=Cc2sccc2C)cc1 | 17.4
75 | Cc1nc(N)cc(=O)[nH]1 | 2.75
76 | Cc1cc(C)c(N)c(C(=O)O)c1 | 10.4
77 | COc1ccc(N)cc1 | 7.59
78 | Cc1ccc(C(C)C)c(OCCN)c1 | 10.2
79 | CC(C)c1ccccc1NC(=S)NCCN1CCN(C(=S)Nc2ccccc2C(C)C)CC1 | 12.5

The next lines start with the values.

Row | LC retention time [min] | Structure (SMILES)
80 | 13.2 | S=C(NCCc1c[nH]c2ccccc12)Nc1ccccc1
81 | 9.05 | NC(=O)c1cc2ccccc2o1
82 | 4.79 | O=c1cccc[nH]1
83 | 7.72 | Cc1nn(CC(=O)NCCO)c(=O)c2ccccc12
84 | 15.7 | CC1CCC(c2cn(C)c3ccccc23)C(=O)C1 (configuration not stated)
85 | 8.37 | Cc1nn(CC(=O)NCc2ccccn2)c(=O)c2ccccc12
86 | 7.66 | CC(=O)N=Nc1c(O)[nH]c2ccccc12
87 | 12.5 | CCOC(=O)c1ccc(N(CC)CC)cc1
88 | 12.1 | Cc1cc(-c2ccccc2)cc(-c2ccccc2)n1
89 | 7.72 | OCCNCc1ccccc1
90 | 8.98 | CN(C)C(=O)c1ccccc1
91 | 17.6 | CC(C)c1cccc(C(C)C)c1NC(=O)COC(=O)CNC(=O)c1ccc(C(C)(C)C)cc1
92 | 13.8 | O=C(O)C1CCCCC1C(=O)Nc1ccc2c(c1)CCCC2 (configuration not stated)
93 | 17.9 | Cc1cc(C)cc(NC(=O)c2cc(-c3ccccc3)nc3ccccc23)c1
94 | 20.1 | c1ccc(-n2c3c(c4ccccc42)CCC3)cc1
95 | 11.7 | Cc1c(C(=O)Nc2ccccn2)c(C(C)N=Nc2ccccc2)cc(=O)n1-c1ccccn1 (configuration not stated)
96 | 12.8 | CCCCc1c(O)n(-c2ccc(O)cc2)n(-c2ccccc2)c1=O
97 | 8.93 | Cc1ccc(-c2ccccc2)nc1C
98 | 6.5 | CC(=O)Nc1ccccn1
99 | 9.8 | Cc1ccc(NC(=O)C(=O)NCCN2CCN(C(=O)c3ccccc3)CC2)cc1
100 | 13 | C#CC(C)(CC)NC(=O)CCc1ccccc1 (configuration not stated)
101 | 9.05 | O=C1CCN(c2ccccc2)N1
102 | 11.5 | CNCCCN1c2ccccc2CCc2ccccc21
103 | 9.39 | O=C1C=C(O)C(=O)C1c1ccccc1 (configuration not stated)
104 | 8.13 | Cc1[nH]c2ccc(C(=O)O)cc2c1CC(=O)O
105 | 9 | O=C1CCCCCN1CP(=O)(O)CCc1ccccc1
106 | 9.01 | O=C(O)CC(NC(=O)OCc1ccccc1)C(=O)O (configuration not stated)

Row | LC retention time [min] | Structure (SMILES)
107 | 7.96 | Nc1nc(N)nc(Cc2ccccc2)n1
108 | 8.51 | CC(C)C[NH2+]C(CC(=O)O)c1ccccc1 (configuration not stated)
109 | 9.72 | S=C(Nc1cccnc1)N1CCc2ccccc21
110 | 12.8 | CCOC(=O)C(=CNc1ccccc1N)C(=O)OCC
111 | 6.28 | Nc1cccc(CO)c1
112 | 7.79 | CN(CCc1ccccn1)Cc1ccccn1
113 | 12.6 | O=C(C=Cc1ccccc1)c1ccc(O)c(O)c1O
114 | 7.92 | CC(=O)Nc1ccc(CCC(=O)O)cc1
115 | 8.34 | Nc1cccc2cc3ccccc3nc12
116 | 19.5 | CC(C)Cn1c2ccccc2c2ccccc21
117 | 15.3 | O=C(NCCCc1ccccc1)c1ccccc1O
118 | 9.08 | Cc1[nH]c2ccccc2c1CCNC(N)=O
119 | 13.2 | CC(=O)Oc1ccc(C(=O)N2CCc3ccccc32)cc1
120 | 9.91 | O=C1CC(N2CCN(Cc3ccccc3)CC2)C(=O)N1Cc1ccccc1 (configuration not stated)
121 | 6.38 | OCc1cccnc1-c1ncccc1CO
122 | 14.5 | COc1ccc(N2CC(C(=O)N3CCC(Cc4ccccc4)CC3)CC2=O)cc1 (configuration not stated)
123 | 11.1 | CC(=O)Nc1ccc(C(=O)NCCc2c[nH]c3ccc(C)cc23)cc1
124 | 11.2 | Cn1nc(-c2ccccc2)c(-c2ccccc2)c(C(=O)O)c1=O
125 | 8.96 | CC(=O)Nc1ccc(C(=O)NCc2ccco2)cc1
126 | 14.3 | O=C(C=Cc1ccccc1)c1ccc(O)cc1O
127 | 9.35 | CCCNC(=O)c1ccccc1N
128 | 13.6 | O=C(NCCOc1ccccc1)Nc1cccc(NC(=O)NCCOc2ccccc2)c1
129 | 7.65 | Cn1c(=O)c2ccccc2n(CCN)c1=O
130 | 12.2 | C#CC(C)(C)NC(=O)CCCCCN1C(=O)c2ccccc2C1=O
131 | 8.16 | COc1ccccc1OCCN1CCNCC1
132 | 15.3 | Cc1c(C(=O)N(C)c2ccccc2)oc2ccccc12
